The text below walks through data of US9650674B2, “Nucleic acid probes and methods of using the same” (Board of Trustees University of Arkansas, priority 2012, dated 2017).

{Cy5.5} = Cy5.5 near-infrared fluorophore label at the ends

Series [1] has as its target T1, DNase I (Homo sapiens, UniProt P24855).
T1 construct: purchased Sigma (St. Louis, Mo.)
T1 sequence (P24855 23-282): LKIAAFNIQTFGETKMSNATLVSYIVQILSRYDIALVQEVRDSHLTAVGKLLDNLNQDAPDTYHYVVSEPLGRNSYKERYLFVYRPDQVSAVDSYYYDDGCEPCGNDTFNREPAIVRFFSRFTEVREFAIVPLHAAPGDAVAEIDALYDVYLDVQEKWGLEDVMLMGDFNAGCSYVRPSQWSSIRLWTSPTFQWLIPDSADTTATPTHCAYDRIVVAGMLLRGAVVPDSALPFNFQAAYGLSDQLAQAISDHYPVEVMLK
Kind of series: DNase I endonuclease activity measured with AB259.3 probe in presence of inhibitors. The format is biochemical. Conditions: 1 μg/ml DNase I; EDTA 200 μM; FIG. 2D. On the procedure: (§1) To detect specificity of the assay to DNase I that is a Ca/Mg-dependent endonuclease, AB259.3 probe was tested with 1 μg/ml DNase I in the presence of Ca++ and Mg++ (EAA buffer), in absence of the cations (deionized water), or in excess of EDTA (200 μM). […] Finally, it was tested whether AB259.3 probe will detect inhibition of DNase I activity by DNase I inhibitors such as ZnCl2 and Zn-diisopropyl salicylate (Zn-DIPS).
(§2) All cell-free experiments were performed using the Bio-Tek Synergy 5 fluorescent plate reader. Before experiments, optimal excitation and emission wavelengths were determined. For this, excitation and emission were scanned in the ranges of 600-680 nm and 690-705 nm, respectively. The optimal excitation/emission was determined to be 665/703 nm. All kinetic and endpoint measurements were done in a total volume of 100 μl at 37° C. Unless stated otherwise, DNA substrate was used in final concentration 0.5 μM reconstituted in endonuclease activity assay (EAA) buffer (2 mM CaCl2, 5 mM MgCl2, 10 mM Tris-HCl, pH 7.4) in a 96-well plate. After measurement of starting fluorescence, DNase I or tested material (diluted 1:20 urine or 1:100 serum) were added to the reconstituted probe, rapidly mixed and fluorescence was monitored for up to 60 min with 30-sec intervals. In some instances, EDTA (final concentration 200 μM) or NaOH (50 mM) was added to terminate the reaction. For the experiments that involved assessment of fluorescence after DNA denaturing, probes were tested in Cepheid real-time PCR system using Cy5 setting (Sunnyvale, Calif.).

Another series concerns NRK-52E cells. Kind of series: Intracellular endonuclease activity in cultured cells, time-lapse microscopy. The format is cell-based, rat. As to conditions: 25 μM cisplatin or 50 μM camptothecin for 8 hours; FIGS. 4B and 4C. As for the experimental part:
To test whether AB259.3 probe may be delivered intracellularly and thus be used as an indicator of endonuclease activity in live cells, NRK-52E cells were transfected with of AB259.3/Lipofectamine LTX complexes and imaged by time-lapse epifluorescence microscopy every 10 min for 8 hours. A 2.5-3 times increased fluorescence reached plateau in 1 hour after transfection and the cells retained fluorescent dye for the duration of experiment (FIG. 4A). To induce activity of endonucleases, cells were treated with cisplatin or camptothecin and imaged by time-lapse microscopy for Cy5.5 fluorescence. […] Therefore, it was concluded that AB259.3 can be delivered and used for intracellular monitoring of endonuclease activity in live cells. To further determine whether AB259.3 probe can be used in other cell lines, several of them were tested (FIG. 4D). […] It was then determined whether the probe without the loop would be consumed by NRK-52E cells equally to the original loop probe. […] Finally, PCR was used to determine whether the DNA part (as opposed to the fluorophores) of the probes enters the cells in vivo and in vitro.
Rat proximal tubular epithelial NRK-52E cells were used to test the ability of AB259.3 probe to measure endonuclease activity. The cells were seeded in a 24-well plate at 50,000 cells per well in complete DMEM medium supplemented with 10% fetal bovine serum. Cells were transfected with the AB259.3 probe using Lipofectamin LTX and then subjected to spinning disk confocal fluorescent time-lapse microscopy in 628/40-692/40 spectrum every 10 min for 8 hours using Olympus IX-81 image system equipped with Hamamatsu ORCA-ER camera and LiveCell microenvironmental control chamber (Pathology Devices Inc., Westminster, Md.). In separate experiment, cells were treated with either 25 μM cisplatin or 50 μM camptothecin for 8 hours, followed by 1-hour transfection with AB259.3 probe and 8-hour time-lapse imaging session with 10-min intervals using the same microscopy system.

A short description of series [2]: Baseline fluorescence of hairpin DNA probes. The format is physicochemical. As to conditions: FIG. 1B.
From the text: It was impossible to determine if the background fluorescence was attributed to the probe or it originated from a partial degradation of the probe. Consequently, the NIRF probes were designed as hairpins to allow testing the integrity of DNA by its denaturing followed by reannealing. The use of hairpin also allows easy measurement of the maximum fluorescence of the probe. The distance between two fluorophores varied by changing of protruding DNA strand length from +0 (AB259.1 probe) to +5 (AB259.3 probe) or to +10 (AB259.5 probe) as shown in FIG. 1A. The baseline fluorescence of probe AB259.1 was 30% higher than negative control without a probe (FIG. 1B).
as §2

Series [3] concerns the target T1, DNase I. Kind of series: Kinetic fluorescence of probes exposed to DNase I in vitro. The format is biochemical. As to conditions: probe 0.5 μM, DNase I 1 μg/ml; for gain of fluorescence compared to baseline: twenty min into the reaction, FIG. 2B. As for the experimental part: It was hypothesized that exposure of the probes to endonucleases would lead to DNA cleavage and dissociation of protruded strand from the hairpin (FIG. 2A). To assess which of the proposed probes is the best to measure endonuclease activity, the probes (0.5 μM) were exposed with recombinant human DNase I (1 μg/ml) and the kinetic fluorescence curves were recorded. Twenty min into the reaction, AB259.1, AB259.3 and AB259.5 gained 1.75-, 2.6- and 1.62-fold fluorescence, respectively, compared to the baseline (FIG. 2B). At 20-25 min, AB259.1 and AB259.3 reached the plateaus. […] Therefore, AB259.3 was chosen for further experiments.
as §1, §2

The nature of series [4]: Alkaline denaturing of probes, kinetic fluorescence. The format is physicochemical. As to conditions: alkaline buffer. On the procedure: Lastly, the probes' integrity was tested by alkaline denaturing. The probes were treated with alkaline buffer and kinetic detection of the fluorescence was performed. […] AB259.1, AB259.3 and AB259.5 gained 40%, 81%, and 85% of fluorescence, respectively.
as §2

Series [5] is described as follows: Heat denaturing and reannealing of hairpin probes (probe integrity). The format is physicochemical. As to conditions: ROX internal reference; above background; FIG. 1C. On the procedure:
To ensure the integrity of the DNA probes, it was tested whether a heat denaturing of the hairpins would cause an increase in fluorescence, and if a reannealing would reverse it. To compensate for thermal change of fluorophore's emission, the ROX fluorophore was added to tested probes as an internal reference.
as §2

Series [6] relates to wild-type (WT) mouse kidney cryosections. Kind of series: Endonuclease activity ex vivo in kidney cryosections. As to conditions: FIG. 5C. On the procedure: Next it was examined whether AB259.3 probe can be used for measurement of endonuclease activity in tissue sections. Kidneys were used because they are known for high activity of DNase I (Ca/Mg-dependent endonuclease). Freshly prepared 10 μm thick cryosections of wild-type (WT) mouse kidney were exposed with 5 μM AB259.3 probe in presence of EAA buffer at 37° C. and time-lapse imaged for 10 min with 1-min intervals.
Specimens of kidney, liver, spleen and testis tissues were removed from euthanized mice, immersed in OCT medium, rapidly frozen by Fisher Freeze-it and kept on dry ice for no longer than 1 hour prior slicing. Tissue cryosections (8-μm thick) were prepared using the Microm HM 505E cryotome, placed to the Fisher Plus slides and immediately exposed with 0.5 μM AB259.3 probe diluted in EAA buffer. In control samples, applied probe contained EAA buffer supplemented with 200 μM EDTA. Images were taken in 628/40-692/40 spectrum every 30 sec for 10 min in 10 random XY coordinates. Three sections from each specimen were analyzed separately. Maximal velocity of increasing fluorescence was averaged for each section.

The test system of another series is WT and DNase I KO mice. Kind of series: Intravital imaging of endonuclease activity in kidneys. As to conditions: 5 μl DNase I (0.1 mg/ml) subcapsular, left kidney, then AB259.3 50 nmol/kg i.v.; FIGS. 7F and 7G.

From the text for WT and DNase I KO mice: At the next step, WT and DNase I KO mice were anesthetized and intravenously administered with 50 nmol/kg of AB259.3 probe followed by intravital imaging using Xenogen-IVIS.
To additionally confirm preferential accumulation and processing of AB259.3 probe in kidneys, separate set of mice was deeply anesthetized and subjected to abdominal incision and real-time intravital visualization of left kidney while performing intravenous injection of AB259.3 probe. […] For this, DNase I KO animals were subjected to open surgery that was used to administer 5 μl DNase I (0.1 mg/ml) to subcapsular space of upper ventral zone of left kidney. To control effect of DNase I, additional WT and DNase I KO mice were injected with same volume of the vehicle. Immediately after injection, mice were injected with 50 nmol/kg of AB259.3 probe intravenously and then imaged in a Xenogen-IVIS.
Male DNase I KO mice and their WT counterparts at the age 8-10 weeks were used for all experiments. All procedures with mice were performed under general anesthesia with 50 mg/kg ketamine. For subcutaneous administration, mice were injected with 10 μl of 0.1 μM AB259.3 in the dorsal subcutaneous site. For systemic visualization, AB259.3 was injected intravenously at 50 nmol/kg in tail vein.
Imaging of live and euthanized mice or their isolated organs were performed using Xenogen IVIS Image System 200 (Caliper Life Sciences, Hopkinton, Mass.) equipped with Living Image® Software.

Turning to `[Cl-].[Cl-].[Zn+2]` [ZnCl2, zinc chloride], the “effect on DNase I activity detected by AB259.3 fluorescence” value (“effect on DNase I activity detected” for short) on DNase I [1] was “suppressed”.

`CC[C@@]1(O)C(=O)OCc2c1cc1n(c2=O)Cc2cc3ccccc3nc2-1` [camptothecin, reference compound]: in the series on NRK-52E cells, the “induction of endonuclease activity (Cy5.5 fluorescence of AB259.3 in treated cells)” value was “significant increase of fluorescence”.

“[Cy5.5]AACACTCCGATGAGTGTAGAATGTACGAGT[Cy5.5] (DNA, 5' {Cy5.5}, 3' {Cy5.5}, backbone not given here; hairpin DNA probe) [AB259.5, hairpin DNA probe with Cy5.5 at both ends, protruding strand +10]”: the “baseline fluorescence (in words)” value in series [2] (correlated with length of protruded DNA end) was “much higher levels of the baseline fluorescence”. In the series with DNase I [3], the “behaviour of fluorescence at 20-25 min (in words)” value is “became variable and did not yield reliable gain of fluorescence thereafter”; the “gain of fluorescence compared to baseline” value amounted to 1.62 fold. In addition, in series [4], the “gain of fluorescence on alkaline denaturing” value stood at 85%. Also, in series [5], the “gain of fluorescence on heat denaturing” value was found to be 1.8 times.

Regarding “[Cy5.5]AACACTCCGATGAGTGTA[Cy5.5] (DNA, 5' {Cy5.5}, 3' {Cy5.5}, backbone not given here; hairpin DNA probe) [AB259.1, hairpin DNA probe with Cy5.5 at both ends, protruding strand +0]”, the “baseline fluorescence higher than negative control without a probe” value in series [2] stood at 30%. In addition, the “gain of fluorescence compared to baseline” value in the series with DNase I [3] is reported as 1.75 fold. Moreover, the “gain of fluorescence on alkaline denaturing” value in series [4] turned out to be 40%. The “gain of fluorescence on heat denaturing” value in series [5] worked out at 2.7 times.

With `CC(C)c1cc(C(=O)O)c([O-])c(C(C)C)c1.CC(C)c1cc(C(=O)O)c([O-])c(C(C)C)c1.[Zn+2]` [Zn-DIPS, zinc-diisopropyl salicylate], the “effect on DNase I activity detected” value at DNase I [1] is “suppressed”.

On to `O=C(O)CN(CCN(CC(=O)O)CC(=O)O)CC(=O)O` [EDTA, reference compound], for which the “effect of EDTA on fluorescence increase in cryosections” value in series [6] was “the increase of fluorescence was prevented”. Further, the “effect on DNase I activity detected” value on DNase I [1] was “inhibited”.

Turning to `N.N.[Cl][Pt][Cl]` [cisplatin, reference compound], in the series on NRK-52E cells, the “induction of endonuclease activity (Cy5.5 fluorescence of AB259.3 in treated cells)” value is “significant increase of fluorescence”.

B1: DNase I: recombinant DNase I delivered to the kidneys of DNase I KO mice (protein, UniProt P24855 23-282, looked up)
Deoxyribonuclease-1: T1 sequence (P24855 23-282)
For B1, the “kidney Cy5.5 fluorescence of DNase I KO mice after subcapsular DNase I” value in the series on WT and DNase I KO mice is “Cy5.5 fluorescence comparable to WT mice”.
